Results on 2 molecules are retold here after article PMC7180948, “New Insights into 4-Anilinoquinazolines as Inhibitors of Cardiac Troponin I–Interacting Kinase (TNNi3K)” (Molecules, 2020).

Like-named read-outs stand apart in the source and are kept apart here.

Holding throughout (experiment): biochemical
The target of one assay is DDR1 (Homo sapiens, UniProt Q08345). More on the design: KINOMEscan competition binding panel (Eurofins DiscoverX), single concentration, percent inhibition. Conditions: read-out: 15 at 1 µM % inhibition. In a few lines:
(§1)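 KINOMEscan binding panel of >400 kinases, run by Eurofins DiscoverX, with compounds tested at a single concentration of 1 µM.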

A further assay has as its target DYRK2 (Homo sapiens, UniProt Q92630). More on the design: KINOMEscan competition binding panel (Eurofins DiscoverX), single concentration, percent inhibition. Conditions: read-out: 15 at 1 µM % inhibition. Summed up:
as §1

The next assay has as its target KIT(V559D) (Homo sapiens, UniProt P10721, V559D). More on the design: KINOMEscan competition binding panel (Eurofins DiscoverX), single concentration, percent inhibition. The conditions noted are these: read-out: 15 at 1 µM % inhibition. Summed up:
as §1

The target of another assay is EGFR(G719C) (Homo sapiens, UniProt P00533, G719C). Set-up: KINOMEscan competition binding panel (Eurofins DiscoverX), single concentration, percent inhibition. Conditions: read-out: 15 at 1 µM % inhibition. In a few lines: as §1
The next assay concerns the target T1, SIK (Homo sapiens, UniProt P57059).
T1 construct: gene SIK1
Set-up: KINOMEscan competition binding panel (Eurofins DiscoverX), single concentration, percent inhibition. The conditions noted are these: read-out: 15 at 1 µM % inhibition. Summed up:
as §1

A further assay concerns the target KIT-autoinhibited (Homo sapiens, UniProt P10721). Set-up: KINOMEscan competition binding panel (Eurofins DiscoverX), single concentration, percent inhibition. The conditions noted are these: read-out: 15 at 1 µM % inhibition. In a few lines: as §1
Another assay concerns the target T2, DCAMKL3 (Homo sapiens, UniProt Q9C098).
T2 construct: gene DCLK3
More on the design: KINOMEscan competition binding panel (Eurofins DiscoverX), single concentration, percent inhibition. The conditions noted are these: read-out: 15 at 1 µM % inhibition. Summed up:
as §1

Assay [1] addresses T3, EPHA6 (Homo sapiens, UniProt Q9UF33). Set-up: KINOMEscan competition binding panel (Eurofins DiscoverX), single concentration, percent inhibition. The conditions noted are these: read-out: 15 at 1 µM % inhibition. In a few lines: as §1
The next assay has as its target STK36 (Homo sapiens, UniProt Q9NRP7). Set-up: KINOMEscan competition binding panel (Eurofins DiscoverX), single concentration, percent inhibition. The conditions noted are these: read-out: 15 at 1 µM % inhibition. In a few lines: as §1
The target in another assay is LTK (Homo sapiens, UniProt P29376). Set-up: KINOMEscan competition binding panel (Eurofins DiscoverX), single concentration, % inhibition. Conditions: read-out: 7 at 1 µM % inhibition. As to the method: (§2) KinomeScan® Assay on 7 and 15 was performed as previously described by EuroFins DiscoverX [24]. GSK114 (7) and 15 were submitted for a KINOMEscan® assay to explore the selectivity profile across >400 human kinases at a compound concentration of 1 µM. […] GSK114 (7) is a narrow-spectrum TNNi3K inhibitor but has some potent off-targets including GAK which has been previously reported for this chemotype. […] If utilized together this set of compounds could be useful to investigate TNNi3K biology.

Another assay has as its target RET(V804L) (Homo sapiens, UniProt P07949, V804L). Set-up: KINOMEscan competition binding panel (Eurofins DiscoverX), single concentration, % inhibition. The conditions noted are these: read-out: 7 at 1 µM % inhibition. As to the method: as §2
The target in the next assay is T4, IKK-beta (Homo sapiens, UniProt O14920).
T4 construct: gene IKBKB
More on the design: KINOMEscan competition binding panel (Eurofins DiscoverX), single concentration, % inhibition. Conditions: read-out: 7 at 1 µM % inhibition. As to the method: as §2

Another assay concerns the target CLK1 (Homo sapiens, UniProt P49759). More on the design: KINOMEscan competition binding panel (Eurofins DiscoverX), single concentration, % inhibition. Conditions: read-out: 7 at 1 µM % inhibition. As to the method: as §2
For the next assay, the target named is T5, MEK2 (Homo sapiens, UniProt P36507).
T5 construct: gene MAP2K2
More on the design: KINOMEscan competition binding panel (Eurofins DiscoverX), single concentration, % inhibition. Conditions: read-out: 7 at 1 µM % inhibition. As to the method:
as §2

For the next assay, the target named is T6, YSK4 (Homo sapiens, UniProt Q56UN5).
T6 construct: gene MAP3K19
More on the design: KINOMEscan competition binding panel (Eurofins DiscoverX), single concentration, % inhibition. Conditions: read-out: 7 at 1 µM % inhibition. As to the method:
as §2

The target in a further assay is CDKL1 (Homo sapiens, UniProt Q00532). Set-up: KINOMEscan competition binding panel (Eurofins DiscoverX), single concentration, % inhibition. The conditions noted are these: read-out: 7 at 1 µM % inhibition. As to the method:
as §2

The next assay has as its target NEK2 (Homo sapiens, UniProt P51955). More on the design: KINOMEscan competition binding panel (Eurofins DiscoverX), single concentration, % inhibition. The conditions noted are these: read-out: 7 at 1 µM % inhibition. As to the method:
as §2

Another assay concerns the target PRKCH (Homo sapiens, UniProt P24723). Set-up: KINOMEscan competition binding panel (Eurofins DiscoverX), single concentration, % inhibition. Conditions: read-out: 7 at 1 µM % inhibition. As to the method: as §2
The target in a further assay is DYRK1A (Homo sapiens, UniProt Q13627). Set-up: KINOMEscan competition binding panel (Eurofins DiscoverX), single concentration, % inhibition. The conditions noted are these: read-out: 7 at 1 µM % inhibition. As to the method:
as §2

The target of assay [2] is T3, EPHA6. Set-up: KINOMEscan competition binding panel (Eurofins DiscoverX), single concentration, % inhibition. Conditions: read-out: 7 at 1 µM % inhibition. As to the method: as §2
The target of a further assay is ALK (Homo sapiens, UniProt Q9UM73). More on the design: KINOMEscan competition binding panel (Eurofins DiscoverX), single concentration, % inhibition. The conditions noted are these: read-out: 7 at 1 µM % inhibition. As to the method: as §2
Assay [3] addresses T7, RSK1(Kin.Dom.2-C-terminal) (Homo sapiens, UniProt Q15418).
T7 construct: gene RPS6KA1; Kin.Dom.2-C-terminal
More on the design: KINOMEscan competition binding panel (Eurofins DiscoverX), single concentration, % inhibition. Conditions: read-out: 7 at 1 µM % inhibition. As to the method:
as §2

The target of another assay is TSSK3 (Homo sapiens, UniProt Q96PN8). Set-up: KINOMEscan competition binding panel (Eurofins DiscoverX), single concentration, % inhibition. Conditions: read-out: 7 at 1 µM % inhibition. As to the method:
as §2

The target in the next assay is T8, BIKE (Homo sapiens, UniProt Q9NSY1).
T8 construct: gene BMP2K
Set-up: KINOMEscan competition binding panel (Eurofins DiscoverX), single concentration, % inhibition. Conditions: read-out: 7 at 1 µM % inhibition. As to the method: as §2

T3 sequence (Q9UF33 whole entry): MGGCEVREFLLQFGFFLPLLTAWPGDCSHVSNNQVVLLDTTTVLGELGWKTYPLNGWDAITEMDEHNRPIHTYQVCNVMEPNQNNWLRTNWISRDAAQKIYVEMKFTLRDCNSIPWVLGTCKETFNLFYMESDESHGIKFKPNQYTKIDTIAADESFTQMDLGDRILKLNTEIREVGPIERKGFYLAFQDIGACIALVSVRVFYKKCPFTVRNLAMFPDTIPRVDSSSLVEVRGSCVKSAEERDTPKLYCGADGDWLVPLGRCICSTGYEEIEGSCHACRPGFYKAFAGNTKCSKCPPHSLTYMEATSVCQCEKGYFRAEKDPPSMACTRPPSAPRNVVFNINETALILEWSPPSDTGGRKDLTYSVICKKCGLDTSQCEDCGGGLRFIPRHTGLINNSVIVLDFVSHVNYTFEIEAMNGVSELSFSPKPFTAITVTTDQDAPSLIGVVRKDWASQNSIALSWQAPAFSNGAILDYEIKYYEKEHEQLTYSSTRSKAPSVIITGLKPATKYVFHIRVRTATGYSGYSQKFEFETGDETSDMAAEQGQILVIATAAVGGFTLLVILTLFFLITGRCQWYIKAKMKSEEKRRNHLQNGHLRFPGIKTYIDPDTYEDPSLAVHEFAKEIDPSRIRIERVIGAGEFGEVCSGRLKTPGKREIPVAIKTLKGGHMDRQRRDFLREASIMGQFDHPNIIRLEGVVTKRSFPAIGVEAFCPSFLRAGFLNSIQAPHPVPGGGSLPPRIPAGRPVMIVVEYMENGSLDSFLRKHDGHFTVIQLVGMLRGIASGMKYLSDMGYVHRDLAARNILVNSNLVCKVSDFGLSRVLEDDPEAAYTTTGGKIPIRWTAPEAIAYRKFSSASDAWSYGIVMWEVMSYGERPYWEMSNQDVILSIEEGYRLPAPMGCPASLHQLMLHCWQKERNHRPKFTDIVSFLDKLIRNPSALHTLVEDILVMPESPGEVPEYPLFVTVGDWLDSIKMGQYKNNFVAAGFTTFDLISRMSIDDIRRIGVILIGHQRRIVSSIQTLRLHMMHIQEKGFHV
EGFR(G719C), sequence (P00533 whole entry G719C): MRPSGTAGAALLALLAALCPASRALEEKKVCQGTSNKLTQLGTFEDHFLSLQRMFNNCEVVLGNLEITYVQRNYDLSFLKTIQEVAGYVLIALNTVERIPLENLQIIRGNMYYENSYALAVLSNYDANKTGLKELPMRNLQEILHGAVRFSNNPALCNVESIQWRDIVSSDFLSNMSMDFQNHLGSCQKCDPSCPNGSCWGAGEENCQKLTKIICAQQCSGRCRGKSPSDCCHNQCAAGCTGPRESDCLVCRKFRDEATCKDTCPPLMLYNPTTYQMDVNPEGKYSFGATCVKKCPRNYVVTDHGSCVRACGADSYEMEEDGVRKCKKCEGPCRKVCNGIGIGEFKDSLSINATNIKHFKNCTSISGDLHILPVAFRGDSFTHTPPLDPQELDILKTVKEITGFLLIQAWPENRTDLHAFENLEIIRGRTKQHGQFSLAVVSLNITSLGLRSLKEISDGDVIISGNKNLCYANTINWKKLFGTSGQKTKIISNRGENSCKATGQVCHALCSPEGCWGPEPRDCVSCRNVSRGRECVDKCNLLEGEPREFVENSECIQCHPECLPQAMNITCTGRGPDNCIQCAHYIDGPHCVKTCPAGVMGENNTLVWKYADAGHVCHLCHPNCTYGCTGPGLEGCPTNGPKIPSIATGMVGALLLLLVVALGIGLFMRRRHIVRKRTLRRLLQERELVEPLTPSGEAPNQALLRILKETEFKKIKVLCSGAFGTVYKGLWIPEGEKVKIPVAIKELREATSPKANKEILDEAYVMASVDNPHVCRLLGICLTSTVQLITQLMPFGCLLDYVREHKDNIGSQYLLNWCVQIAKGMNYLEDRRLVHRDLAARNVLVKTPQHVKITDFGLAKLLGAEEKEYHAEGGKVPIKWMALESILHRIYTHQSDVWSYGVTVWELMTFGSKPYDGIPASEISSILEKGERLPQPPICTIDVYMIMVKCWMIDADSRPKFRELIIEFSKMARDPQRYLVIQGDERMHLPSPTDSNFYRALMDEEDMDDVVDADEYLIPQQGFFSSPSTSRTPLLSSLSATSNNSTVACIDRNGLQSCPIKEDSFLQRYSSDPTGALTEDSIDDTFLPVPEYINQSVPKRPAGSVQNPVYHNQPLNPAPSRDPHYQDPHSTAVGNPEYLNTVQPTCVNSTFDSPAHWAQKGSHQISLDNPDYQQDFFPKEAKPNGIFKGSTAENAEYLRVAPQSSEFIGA
NEK2, sequence (P51955 whole entry): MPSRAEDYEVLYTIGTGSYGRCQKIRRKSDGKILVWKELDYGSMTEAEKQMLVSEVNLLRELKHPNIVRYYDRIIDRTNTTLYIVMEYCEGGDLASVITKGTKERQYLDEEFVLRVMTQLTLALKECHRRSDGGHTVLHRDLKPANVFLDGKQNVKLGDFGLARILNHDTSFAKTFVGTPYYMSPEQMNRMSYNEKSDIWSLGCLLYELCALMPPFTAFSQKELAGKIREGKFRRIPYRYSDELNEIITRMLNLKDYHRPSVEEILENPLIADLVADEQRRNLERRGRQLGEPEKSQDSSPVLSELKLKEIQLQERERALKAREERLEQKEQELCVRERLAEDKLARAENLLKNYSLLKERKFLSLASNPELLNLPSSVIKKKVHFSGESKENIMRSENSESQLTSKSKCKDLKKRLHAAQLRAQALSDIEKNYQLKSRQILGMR
T1 sequence (P57059 whole entry): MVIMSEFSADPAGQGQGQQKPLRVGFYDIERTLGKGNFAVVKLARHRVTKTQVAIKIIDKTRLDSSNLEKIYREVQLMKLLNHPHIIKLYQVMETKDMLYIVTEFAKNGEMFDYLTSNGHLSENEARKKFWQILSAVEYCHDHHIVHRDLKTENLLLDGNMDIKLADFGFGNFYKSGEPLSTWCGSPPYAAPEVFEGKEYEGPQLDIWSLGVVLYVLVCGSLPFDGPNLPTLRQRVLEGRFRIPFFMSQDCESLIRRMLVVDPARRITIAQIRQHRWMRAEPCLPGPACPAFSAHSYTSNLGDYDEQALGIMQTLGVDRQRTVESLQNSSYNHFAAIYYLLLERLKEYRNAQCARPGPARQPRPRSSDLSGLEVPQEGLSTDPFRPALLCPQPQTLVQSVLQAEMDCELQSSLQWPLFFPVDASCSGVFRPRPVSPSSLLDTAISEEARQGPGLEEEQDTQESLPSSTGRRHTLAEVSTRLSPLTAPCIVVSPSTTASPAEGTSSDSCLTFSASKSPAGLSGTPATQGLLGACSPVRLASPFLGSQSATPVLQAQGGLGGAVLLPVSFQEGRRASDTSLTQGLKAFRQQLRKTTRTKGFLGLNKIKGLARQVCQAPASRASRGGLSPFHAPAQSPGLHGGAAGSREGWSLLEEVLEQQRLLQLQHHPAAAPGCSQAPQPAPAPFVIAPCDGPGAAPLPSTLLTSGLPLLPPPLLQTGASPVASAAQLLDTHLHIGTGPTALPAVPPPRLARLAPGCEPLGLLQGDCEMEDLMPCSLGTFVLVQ
RET(V804L), sequence (P07949 whole entry V804L): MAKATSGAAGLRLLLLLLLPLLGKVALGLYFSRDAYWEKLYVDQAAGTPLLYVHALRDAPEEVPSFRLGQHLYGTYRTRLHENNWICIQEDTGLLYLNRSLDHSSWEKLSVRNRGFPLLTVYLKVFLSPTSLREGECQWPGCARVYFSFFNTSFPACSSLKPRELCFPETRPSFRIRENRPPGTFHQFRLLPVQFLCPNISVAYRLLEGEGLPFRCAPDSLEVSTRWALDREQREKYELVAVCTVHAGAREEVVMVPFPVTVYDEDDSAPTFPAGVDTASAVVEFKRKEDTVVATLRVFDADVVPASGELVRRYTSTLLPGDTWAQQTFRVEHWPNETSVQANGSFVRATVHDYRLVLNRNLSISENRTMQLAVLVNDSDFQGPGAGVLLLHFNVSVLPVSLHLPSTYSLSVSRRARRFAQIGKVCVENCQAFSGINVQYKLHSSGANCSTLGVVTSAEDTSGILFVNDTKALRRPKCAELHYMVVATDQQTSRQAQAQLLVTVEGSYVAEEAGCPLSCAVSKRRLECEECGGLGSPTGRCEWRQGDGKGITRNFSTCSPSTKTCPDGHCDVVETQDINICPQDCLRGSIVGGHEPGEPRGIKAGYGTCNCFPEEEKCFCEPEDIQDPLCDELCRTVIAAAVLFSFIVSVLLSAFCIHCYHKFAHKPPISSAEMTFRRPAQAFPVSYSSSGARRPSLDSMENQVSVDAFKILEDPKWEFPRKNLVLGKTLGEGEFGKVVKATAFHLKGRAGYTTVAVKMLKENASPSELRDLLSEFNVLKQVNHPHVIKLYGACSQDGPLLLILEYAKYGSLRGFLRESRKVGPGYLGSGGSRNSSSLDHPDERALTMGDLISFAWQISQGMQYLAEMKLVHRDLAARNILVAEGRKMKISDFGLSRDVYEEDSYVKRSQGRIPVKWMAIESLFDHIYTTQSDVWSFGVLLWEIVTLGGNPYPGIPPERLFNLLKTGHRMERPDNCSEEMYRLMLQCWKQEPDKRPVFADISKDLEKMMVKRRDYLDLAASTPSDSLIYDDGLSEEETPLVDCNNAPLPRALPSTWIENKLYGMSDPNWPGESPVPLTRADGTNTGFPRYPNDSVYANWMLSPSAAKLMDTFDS
CDKL1, sequence (Q00532 whole entry): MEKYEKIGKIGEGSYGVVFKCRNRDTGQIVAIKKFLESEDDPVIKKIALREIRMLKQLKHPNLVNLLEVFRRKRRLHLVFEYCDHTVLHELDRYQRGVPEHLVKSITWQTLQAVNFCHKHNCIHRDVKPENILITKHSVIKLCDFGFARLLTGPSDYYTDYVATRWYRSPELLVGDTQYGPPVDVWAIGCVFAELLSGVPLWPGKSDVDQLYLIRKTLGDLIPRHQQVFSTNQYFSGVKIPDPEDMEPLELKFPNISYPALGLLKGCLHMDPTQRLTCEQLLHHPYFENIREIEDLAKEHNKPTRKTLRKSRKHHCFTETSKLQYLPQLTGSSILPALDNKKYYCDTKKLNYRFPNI

For orientation: inhibition means how much of the control response was suppressed. For the molecule `CNS(=O)(=O)c1ccc(N(C)C)c(Nc2nc(C)nc3cc(OC)c(OC)cc23)c1` [compound 15, 3-((6,7-dimethoxy-2-methylquinazolin-4-yl)amino)-4-(dimethylamino)-N-methylbenzenesulfonamide], the inhibition at 1 µM on DDR1 was determined as 0%; at DYRK2 it was 0%; on KIT(V559D) it was 0%; on EGFR(G719C) it was 0%; at SIK it was 13%; on KIT-autoinhibited, 19%. For the same molecule, the inhibition at 1 µM was 6% at DCAMKL3, 0% at EPHA6 [1] and 0% on STK36.
For `CNS(=O)(=O)c1ccc(N(C)C)c(Nc2ncnc3cc(OC)c(OC)cc23)c1` [compound 7, 3-((6,7-dimethoxyquinazolin-4-yl)amino)-4-(dimethylamino)-N-methylbenzenesulfonamide], the inhibition at 1 µM is 44% at LTK; 0% on RET(V804L); 68% on IKK-beta; 8% at CLK1; 25% at MEK2; 72% on YSK4. Also, the inhibition at 1 µM worked out at 0% at CDKL1; 2% on NEK2; 13% at PRKCH; 0% at DYRK1A; 0% at EPHA6 [2]; 10% at ALK. Also, the inhibition at 1 µM (in assay [3]; on TSSK3; on BIKE) was 0% throughout.
